Laboratory results published in the NIST ThermoML archive (doi:10.1021/je201116t).
± gives the expanded uncertainty stated by the source.

Legend:
[1] = 101 kPa, Liquid; for viscosity: Capillary tube (Ostwald / Ubbelohde) method
[2] = xn = mol fraction of the nth substance listed; settings: 101 kPa, Liquid, x1 = 1; for viscosity: Capillary tube (Ostwald / Ubbelohde) method

Structure (SMILES)	mass density ([1]; 298.15 K) [kg/m3]	viscosity ([1]; 298.15 K) [mPa·s]	mass density ([1]; 303.15 K) [kg/m3]	viscosity ([1]; 303.15 K) [mPa·s]	mass density ([1]; 308.15 K) [kg/m3]	viscosity ([1]; 308.15 K) [mPa·s]	mass density ([1]; 313.15 K) [kg/m3]	viscosity ([1]; 313.15 K) [mPa·s]	viscosity ([2]; 298.15 K) [mPa·s]	mass density ([2]; 298.15 K) [kg/m3]	viscosity ([2]; 303.15 K) [mPa·s]	mass density ([2]; 303.15 K) [kg/m3]	viscosity ([2]; 308.15 K) [mPa·s]	mass density ([2]; 308.15 K) [kg/m3]	viscosity ([2]; 313.15 K) [mPa·s]	mass density ([2]; 313.15 K) [kg/m3]
CCCCO [butan-1-ol]	805.814 ± 1.3	2.577 ± 0.032	801.996 ± 1.3	2.272 ± 0.029	798.13 ± 1.4	2.01 ± 0.025	794.226 ± 1.4	1.786 ± 0.023	–	–	–	–	–	–	–	–
CCCCO [butan-1-ol] + CCC(=O)[O-].CC[NH+]1CCNCC1	–	–	–	–	–	–	–	–	2.577 ± 0.032	805.814 ± 1.3	2.272 ± 0.029	801.996 ± 1.3	2.01 ± 0.025	798.13 ± 1.4	1.786 ± 0.023	794.226 ± 1.4
CCO [ethanol] + CCC(=O)[O-].CC[NH+]1CCNCC1	–	–	–	–	–	–	–	–	1.091 ± 0.013	785.499 ± 1.4	0.9986 ± 0.012	781.197 ± 1.4	0.9139 ± 0.011	776.853 ± 1.4	0.8387 ± 0.01	772.468 ± 1.5
CCO [ethanol]	785.499 ± 1.4	1.091 ± 0.013	781.197 ± 1.4	0.9986 ± 0.012	776.853 ± 1.4	0.9139 ± 0.011	772.468 ± 1.5	0.8387 ± 0.01	–	–	–	–	–	–	–	–
CO [methanol] + CCC(=O)[O-].CC[NH+]1CCNCC1	–	–	–	–	–	–	–	–	0.558 ± 0.0068	786.686 ± 1.4	0.5261 ± 0.0065	781.993 ± 1.4	0.4966 ± 0.0061	777.249 ± 1.4	0.4702 ± 0.0058	772.475 ± 1.5
CO [methanol]	786.686 ± 1.4	0.558 ± 0.0068	781.993 ± 1.4	0.5261 ± 0.0065	777.249 ± 1.4	0.4966 ± 0.0061	772.475 ± 1.5	0.4702 ± 0.0058	–	–	–	–	–	–	–	–

More lines, now with the values ahead:

mass density ([1]; 298.15 K) [kg/m3]	viscosity ([1]; 298.15 K) [mPa·s]	mass density ([1]; 303.15 K) [kg/m3]	viscosity ([1]; 303.15 K) [mPa·s]	mass density ([1]; 308.15 K) [kg/m3]	viscosity ([1]; 308.15 K) [mPa·s]	mass density ([1]; 313.15 K) [kg/m3]	viscosity ([1]; 313.15 K) [mPa·s]	viscosity ([2]; 298.15 K) [mPa·s]	mass density ([2]; 298.15 K) [kg/m3]	viscosity ([2]; 303.15 K) [mPa·s]	mass density ([2]; 303.15 K) [kg/m3]	viscosity ([2]; 308.15 K) [mPa·s]	mass density ([2]; 308.15 K) [kg/m3]	viscosity ([2]; 313.15 K) [mPa·s]	mass density ([2]; 313.15 K) [kg/m3]	Structure (SMILES)
799.557 ± 1.3	1.941 ± 0.024	795.543 ± 1.3	1.728 ± 0.021	791.479 ± 1.4	1.545 ± 0.019	787.371 ± 1.4	1.385 ± 0.017	–	–	–	–	–	–	–	–	CCCO [propan-1-ol]
1008.36 ± 1.2	243.49 ± 7.6	1004.38 ± 1.2	164.81 ± 4.6	1000.33 ± 1.2	113.44 ± 2.7	996.237 ± 1.2	80.93 ± 1.8	–	–	–	–	–	–	–	–	CCC(=O)[O-].CC[NH+]1CCNCC1 [N-ethylpiperazinium propionate]
–	–	–	–	–	–	–	–	1.941 ± 0.024	799.557 ± 1.3	1.728 ± 0.021	795.543 ± 1.3	1.545 ± 0.019	791.479 ± 1.4	1.385 ± 0.017	787.371 ± 1.4	CCCO [propan-1-ol] + CCC(=O)[O-].CC[NH+]1CCNCC1
